Assay: Loading of porous orodispersible film with anthraquinone suspension (coating cycles)
Type: physicochemical
Excerpt: For these tests an anthraquinone suspension (x50=400 nm) was used. These contained, in addition to the anthraquinone, also HPC as stabiliser in a concentration of cHPC=0.25 (in relation to the total quantity of anthraquinone in the suspension). The concentration of the suspension was varied in a range of from 0.05 to 0.2, and the suspension was applied between one and five times to the film. The suspension was applied to the film surface via an application nozzle with a volume of […] at a rate of 220 mm/min. The film used for the tests was a film with cHPC=0.28, as described in Example 1. The loading with anthraquinone was determined for each of the obtained films.

## O=C1c2ccccc2C(=O)c2ccccc21 [anthraquinone]
Film cHPC=0.28, anthraquinone concentration of 0.2, five coating cycles
  anthraquinone loading: 4.9 mg/cm^2
Film cHPC=0.28, anthraquinone concentration of 0.2, five coating cycles, suspension also contains HPC stabiliser
  highest loading: 6.1 mg/cm^2
Per standard orodispersible film of 6 cm^2
  maximum active ingredient loading: approximately 30 mg
